The text below walks through data of patent publication US4039384A, “Creatinine amidohydrolase and creatine amidinohydrolase and process for producing them” (Noda Institute for Scientific Research, priority 1975, dated 1977).

Test [1] addresses T1, creatine amidinohydrolase of this invention (from Flavobacterium U-188, Micrococcus luteus ATCC 398 or Corynebacterium U-41) (Flavobacterium sp. U-188, UniProt P19213).
T1 sequence (P19213 1-403): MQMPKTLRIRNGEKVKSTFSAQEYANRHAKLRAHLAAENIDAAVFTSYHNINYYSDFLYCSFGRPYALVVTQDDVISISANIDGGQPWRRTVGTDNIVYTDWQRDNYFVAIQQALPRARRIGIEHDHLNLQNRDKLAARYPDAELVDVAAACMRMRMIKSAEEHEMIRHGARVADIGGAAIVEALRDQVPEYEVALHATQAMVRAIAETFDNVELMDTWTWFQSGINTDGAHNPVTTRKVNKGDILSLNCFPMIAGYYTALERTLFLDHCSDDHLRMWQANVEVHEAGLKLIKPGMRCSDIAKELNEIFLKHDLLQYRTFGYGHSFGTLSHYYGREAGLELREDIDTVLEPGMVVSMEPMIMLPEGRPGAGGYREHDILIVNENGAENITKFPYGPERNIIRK
Kind of test: Creatine amidinohydrolase activity, enzyme of this invention. Format: biochemical. As for the experimental part:
This enzyme has an ability to hydrolyze creatine into urea and sarcosine. […] 2.
To 0.8 ml of 0.1 M creatine solution are added 0.1 of 0.3 M phosphate buffer (pH 7.7) and 0.1 ml of a solution of this enzyme having an appropriate concentration, and the resulting mixture is reacted at 37° C. for 10 minutes. Then, 2 ml of 2% (W/V) p-dimethylaminobenzaldehyde solution (prepared by dissolving 2 g of p-dimethylaminobenzaldehyde into 100 ml of 99.5% ethanol, adding 15 ml of concentrated hydrochloric acid and diluting the mixture with distilled water to a 2 times greater quantity) is added, and the resulting mixture is allowed to stand at 25° C. for 30 minutes. Then, its absorbance (O. D. value) at 435 mμ is measured with photoelectric colorimeter. […] The quantity of enzyme necessary for producing 1 micromole of urea per one minute at 37° C. is taken as one unit.

Test [2] has as its target T2, creatine amidinohydrolase of prior art (i) (Journal of General Microbiology, Vol. 14, pp. 351 to 365 (1956); Genus Pseudomonas) (Pseudomonas putida, UniProt P38488).
T2 sequence (P38488 1-403): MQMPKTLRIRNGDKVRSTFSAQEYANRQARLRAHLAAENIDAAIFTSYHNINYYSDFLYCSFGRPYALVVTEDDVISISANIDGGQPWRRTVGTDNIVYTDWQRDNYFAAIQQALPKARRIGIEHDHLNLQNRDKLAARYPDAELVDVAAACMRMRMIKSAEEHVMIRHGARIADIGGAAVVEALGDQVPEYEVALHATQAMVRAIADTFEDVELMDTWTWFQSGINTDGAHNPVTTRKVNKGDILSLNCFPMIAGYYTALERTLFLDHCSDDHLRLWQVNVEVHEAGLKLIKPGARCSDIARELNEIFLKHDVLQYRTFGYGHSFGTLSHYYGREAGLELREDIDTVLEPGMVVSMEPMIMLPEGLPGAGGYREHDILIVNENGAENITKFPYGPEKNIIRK
To be noted: cited from earlier work.

[3] abbreviates: inhibitor final concentration 2 × 10^-2 M.
Setting [4] is: inhibitor final concentration 5 × 10^-2 M, pH 9.1.

Read-outs that look alike come from different tables or passages of the source.

As to `[N-]=[N+]=[N-]` [Azide], the “Percentage inhibition of creatine removal” value (shortened to “Percentage inhibition”) in test [1] (setting [3]) was 0%; in test [2] (setting [3]), 18%.
Consider `O=C(O)CI` [Iodoacetate], for which the inhibition at 10000 µM in test [1] (read-out: Percentage inhibition of creatine removal) came out at 0%. In test [2] (inhibitor final concentration 10^-2 M), the “Percentage inhibition” value is 20%.
Regarding Borate, the “Percentage inhibition” value in test [1] (setting [4]) is 40%; in test [2] (setting [4]) it was 80%.
